Results published in patent US20250041247A1, “SMALL MOLECULE INHIBITORS OF REPEAT ASSOCIATED NON-AUG (RAN) TRANSLATION AND COMBINATION THERAPIES” (University of Florida Research Foundation, Incorporated, priority 2021, published 2025).

Experiments:
[1] = system: C9orf72 ALS/FTD mice (C9); experiment: DigiGait gait analysis; type: in vivo; settings: 18 week female mice
Description: Gait analysis. Digital video images of the underside of the mouse were collected with a high-speed video camera from below the transparent belt of a motorized treadmill (DigiGait™ Imaging system, Mouse Specific). Female C9orf72 ALS/FTD mice (C9) mice and their littermates (non-transgenic mice (NT)) were tested at 18 weeks of age with treatment beginning at 8 weeks of age. Each mouse was allowed to explore the treadmill compartment with the motor speed set to 14 cm/s for 1 min, then the motor speed was increased to 24c m/s for video recording. Only video recordings in which the mouse walked straight ahead with a constant relative position with respect to the camera were used for analysis. Data from each hind paw was analyzed with DigiGait automated gait analysis software (Mouse Specifics). For additional details, see Neuron, 2016, 90(3), 521-34. doi: 10.1016/j.neuron.2016.04.005. Mock treatment is vehicle only, meaning chow without quercetin.

poly-Ala RAN proteins = experiment: Protein blots for poly-Ala RAN proteins in HEK293T cells transfected with CAG expansion constructs; type: cell-based; settings: treatment with different concentrations of quercetin, or metformin
Text: cDNA constructs. […] Antibodies. […] Western blotting. […] Quantification and statistical analysis.

[2] = Quercetin-NT vs Quercetin C9, significance

O=c1c(O)c(-c2ccc(O)c(O)c2)oc2cc(O)cc(O)c12 [quercetin]
corrected: 13 gait abnormalities found between C9orf72 ALS/FTD mice (C9) vs. non-transgenic (NT) mice ([1]; DigiGait, treatment beginning at 8 weeks, quercetin in chow)
ns: Absolute PawAngle (deg) [1, 2] | Ataxia Coefficient (real#) [1, 2] | Axis Distance (cm/s) [1, 2] | Brake (s) [1, 2] | BrakeStance (%) [1, 2] | BrakeStride (%) [1, 2] | Gait Symmetry (real#) [1, 2] | Hind Limb Shared Stance Time (s) [1, 2] | MAX dA/dT (cm^2/s) [1, 2] | MIN dA/dT (cm^2/s) [1, 2] | Midline Distance (cm) [1, 2] | Overlap Distance (cm) [1, 2] | Paw Angle Variability (deg) [1, 2] | Paw Area Variability at Peak Stance in sq. cm (cm^2) [1, 2] | Paw Area at Peak Stance in sq. cm (cm^2) [1, 2] | Paw Drag (real#) [1, 2] | PawAngle (deg) [1, 2] | PawPlacementPositioning[PPP] (cm) [1, 2] | Propel (s) [1, 2] | PropelStance (%) [1, 2] | PropelStride (%) [1, 2] | SLVar (cm) [1, 2] | SWVar (cm) [1, 2] | Shared Stance (%) [1, 2] | Stance (s) [1, 2] | Stance/Swing (real#) [1, 2] | StanceFactor (real#) [1, 2] | StanceStride (%) [1, 2] | StanceWidth (cm) [1, 2] | StepAngle (deg) [1, 2] | StepAngle Var (deg) [1, 2] | Steps (real#) [1, 2] | Stride (s) [1, 2] | Stride Frequency (steps/s) [1, 2] | StrideLength (cm) [1, 2] | Swing (%) [1, 2] | SwingStride (%) [1, 2] | Tau - Propulsion (real#) [1, 2]
reduction: polyAla RAN proteins expressed from (CAG)exp (poly-Ala RAN proteins)

CN(C)C(=N)NC(=N)N [metformin]
reduction: polyAla RAN proteins expressed from (CAG)exp (poly-Ala RAN proteins)
